US12599676B2, “Cytotoxic imidazo[1,2-A]pyridine compounds and their use in therapy” (MyricX Pharma Limited, priority 2022, dated 2026)

B1: ifinatamab-DXd: ifinatamab-deruxtecan, comparator ADC in prostate xenograft models (conjugate, chains of the INN, looked up)
VH: QVQLVQSGAEVKKPGSSVKVSCKASGYTFTNYVMHWVRQAPGQGLEWMGYINPYNDDVKYNEKFKGRVTITADESTSTAYMELSSLRSEDTAVYYCARWGYYGSPLYYFDYWGQGTLVTVSS
VL: EIVLTQSPATLSLSPGERATLSCRASSRLIYMHWYQQKPGQAPRPLIYATSNLASGIPARFSGSGSGTDFTLTISSLEPEDFAVYYCQQWNSNPPTFGQGTKVEIK
modifications: deruxtecan payload
notes: ifinatamab-deruxtecan, comparator ADC in prostate xenograft models

Key:
Caco-2 cells = assay: Caco-2 cell permeability assay; assay type: in vitro ADME; conditions: apical to basal Papp, 2 μM, pH 7.4, 2.5 h
Experimental: (§1) Certain Example compounds and Comparative Example 1 were tested for their apical to basal (AB) and basal to apical (BA) permeability in Caco-2 cells.
(§2) Cell Culture: Caco-2 cells were grown for 10 days in 96-well plates in HBSS buffer containing 10 mM HEPES. Both the apical and basal pH was buffered at pH 7.4. The apical/basal volumes were 75 μl and 250 μl respectively. The incubation time was 2.5 h at 37° C. (without shaking) under 5% CO2 & 95% relative humidity.
(§3) Cell Seeding: Cells were seeded at a density of 18750 cells/well (membrane area=0.0804 cm^2) in a 96 well plate.
(§4) AB Assay: 75 μl of cell suspension was added at a density 2.5×10^5 cells/ml to the apical wells. 40 ml media was added to the feeder tray. The plates were placed in the incubator (37° C., 5% CO2 and controlled humidity). The Caco-2 cells were grown for 10 days with a media change on every alternate day.
(§5) BA Assay: 25 μl of cell suspension was added at a density of 7.5×10^5 cells/ml to the bottom side (keeping the plate upside down) of apical wells. The plate (upside down position) was placed in the incubator (37° C., 5% CO2 and 95% Relative humidity) for 2 h. The plate was turned right side up. 75 μl media was added to the apical wells and 40 ml media to the feeder tray.
(§6) Permeablity Assay: The apical and basal wells were washed with buffer (pH 7.4) and 250 μl buffer was added to the wells of the basal plate. 75 μl of compound solution (2 μM, dissolved in water with 1% DMSO) was transferred to the apical wells (n=2). The apical plate was placed onto the basal plate. The lid was placed on to prevent evaporation. The assembly was incubated at 37° C. for 2.5 h (without shaking) under 5% CO2 and 95% relative humidity. After incubation the apical plate was separated from the basal plate. Aliquots were taken out from the acceptor and donor wells, diluted and quantified using LC-MS/MS along with initial donor samples.
(§7) Membrane Integrity Test: Solution in the apical wells was discarded by inverting the plate and soaking onto tissue paper. 250 μl buffer (pH 7.4) was added to each well of basal plate and 75 μl of Lucifer Yellow (LY; 0.1 mg/ml) in buffer (pH 7.4) to the wells of apical plate. The apical plate was placed onto the basal plate and the lid used to prevent evaporation. The assembly was incubated at 37° C. for 1 h (without shaking) under 5% CO2 and 95% relative humidity. The apical plate was separated from the basal plate. Fluorescence (Ex: 432 nm, Em: 530 nm) of aliquots (100 ul) was measured from basal wells. Fluorescence of 100 μl buffer (pH 7.4) and 100 μl LY(0.1 mg/ml) was also measured. Wells having more than 1% fluorescence intensity with respect to 0.1 mg/ml LY were considered non-integrated membrane. Such wells, if any, were not considered for permeability calculation.
(§8) Calculation: Drug was detected and quantified by LC-MS/MS. Data generated took the form of an apparent permeability (Papp) value. Papp=[Va/(AreaxTime)]×(LC-MS Area of Acceptor sample×Sample dilution factor/LC-MS Area of Initial Donor). Va=Volume of Acceptor Well (in ml)=0.25, Vd=Volume of Donor Well (in ml)=0.075, Area=Surface area of the membrane (cm2)=0.0804, Time=Time of incubation (sec)=9000 Results: The results of the assay are shown in Table 3 below.

[1] = Caco-2 cell permeability assay; assay type: in vitro ADME; conditions: human, Caco-2, pH 7.4, basal to apical Papp, pH 7.4, 2.5 h
Experimental: as §1, §2, §3, §4, §5, §6, §7, §8

[2] = tested on: SU-DHL-10 cell line (human B cell lymphoma); assay: Cell cytotoxicity in SU-DHL-10 cell line (CellTiter-Glo); assay type: cell-based; conditions: Homo sapiens, SU-DHL10, 72 h, 72 h treatment, CTG
Experimental: Certain Example compounds of the invention and Comparator Compound 1 were tested in the SU-DHL-10 cell line (human B cell lymphoma). Compounds which show efficacy in this assay are expected to be useful as agents for treating or preventing hyperproliferative disorders such as cancer.
(§9) Cells were seeded in 96-well microplates and treated with compounds or cisplatin (as a positive control) at 9 increasing concentrations in technical triplicate. […] On day 1, 90 μL of various cell suspensions with the number of cells ranging from 5000-8000 cells/well were seeded into wells of a 96-well plate (Corning). The number of cells to be seeded was previously determined. • 2. All 96-wells plates with cells were placed in an incubator overnight at 37° C. with 5% CO2. • 3. On day 2, cells were observed under a microscope ensuring the cells treated with vehicle control were in good condition. • 4. A dilution series of the test compounds and cisplatin were prepared at 10× the final concentrations required. 10 μL/well of 10× compound solution was added to the corresponding plates. The final volume was 100 μL/well for all the plates. Final DMSO concentration was 0.1%. • 5. On day 5 (after 72 hours of incubation), 50 μL of CTG reagent was added to each well. • 6. Contents were mixed for 5 minutes on an orbital shaker to facilitate cell lysis. • 7. The plate was allowed to incubate at room temperature for 10 minutes to stabilize luminescent signals.
Luminescence was recorded using an EnVision Multi Label Reader. Data analysis was performed using GraphPad Prism 8.0.
To calculate IC50, a concentration-response curve was generated using a nonlinear regression model with a sigmoidal concentration response. The formula for calculating the % of viable cells was shown below, and the IC50s are automatically generated by GraphPad Prism 8.0.
(LumTest article=luminescence in test article treated well; LumNone treated=luminescence in vehicle treated well; LumMedium control=luminescence in a well containing only medium and no cells; LumNone treated-LumMedium control was set as 100%)

[3] = tested on: LYXFDLBC2835 (patient-derived xenograft lymphoma); assay: Cell cytotoxicity CellTiter-Glo, LYXFDLBC2835; assay type: cell-based
Experimental: as §9
(§10) The effects of Comparator Compound 1 and certain Example compounds on the viability of various cell lines (LYXFDLBC2835, LYXFDLBC4009 and LYXFDLBC411 (patient-derived xenograft lymphoma), HT1080 (human fibrosarcoma), CA46 (human B cell lymphoma), RKO (human colon carcinoma), NCI-H1703 (human lung squamous cell carcinoma), MX-1 (human breast carcinoma), DU4475 (human breast carcinoma), LU2511 (human lung large cell undifferentiated carcinoma), LU0884 (human lung squamous cell carcinoma)), Panc-1 (human pancreatic carcinoma), MCF-7 (human breast cancer), SW480 (human colon adenocarcinoma) and HCC1806 (human breast ductal carcinoma) were performed using the standard CellTiter-Glo assay (CTG, Promega) as described in Biological Example 2. Compounds which show efficacy in these assays are expected to be useful as agents for treating or preventing hyperproliferative disorders such as cancer.

[4] = tested on: LYXFDLBC4113 (patient-derived xenograft lymphoma); assay: Cell cytotoxicity CellTiter-Glo, LYXFDLBC4113; assay type: cell-based
Experimental: as §9, §10

DOHH-2 tumor cells = assay: Subcutaneous xenograft DOHH-2 lymphoma model; assay type: in vivo, CB17/SCID mice; conditions: oral dosing 12.5 or 25 mg/kg once a day for 9 days
Experimental: The in vivo efficacy of certain Example compounds was assessed in a subcutaneous xenograft DOHH-2 Lymphoma Model using 10 female 6-8 week old CB17/SCID Mice. Each mouse was inoculated subcutaneously at the right front region with DOHH-2 tumor cells (5×10^6) in 0.1 ml of PBS mixed with matrigel (1:1 PBS:matrigel) for tumor development. The test compound administration started once the mean tumor size reached approximately 100-150 mm^3.
Compounds were administered either IP (vehicle 10 mM sodium phosphate+0.2% Tween-80 (pH7.4) or orally (vehicle 15 Na2HPO4 buffer (10 mM) (pH 4.5)+0.2% tween 80). Tumor volumes were measured in two dimensions using a caliper, and the volume expressed in mm^3 using the formula: V=(L×W×W)/2, where V is tumor volume, L is tumor length (the longest tumor dimension) and W is tumor width (the longest tumor dimension perpendicular to L).
Mice were dosed with Example 21 orally (12.5 or 25 mg/kg) once a day for 9 consecutive days (FIG. 3). Example 5 was dosed intraperitoneally (7 or 20 mg/kg) in a cycle consisting of administration QD for three days followed by a three day no-dosing period followed by QD dosing for a further three days (FIG. 4). Example 12 was dosed intraperitoneally (0.7 or 2 mg/kg) in a cycle consisting of administration QD for three days followed by a three day no-dosing period followed by QD dosing for a further three days (FIG. 5). In a separate study Example 12 was dosed at […] in a cycle consisting of administration QD for two days followed by either four or six day no-dosing period, and this cycle was repeated three times (FIG. 6).

[5] = tested on: LYXFDLBC4009 (patient-derived xenograft lymphoma); assay: Cell cytotoxicity CellTiter-Glo, LYXFDLBC4009; assay type: cell-based
Experimental: as §9, §10

LNCaP tumour cells = assay: LNCaP prostate cancer xenograft model; assay type: in vivo, NOD SCID mice; conditions: for Day 28 tumour volume (mm^3, mean ± SEM) / Tumour growth inhibition (TGI, %): IV, Q7D (×3); for Tumour growth inhibition (TGI, %): day 28
Source text: A total of 84 male NOD SCID mice aged 5-8 weeks and weighing 25-30 g were used for the study.

VcaP tumour cells = assay: VCaP prostate cancer xenograft model; assay type: in vivo, CB17/SCID mice
Source text: All mice received two doses of test agent, on Study Day 1 and Study Day 8. The study was terminated on Study Day 30.

JIMT-1 tumour cells = assay: JIMT-1 breast cancer xenograft model; assay type: in vivo, NOD/SCID mice
Experimental: 80 mice were assigned to 8 treatment groups when tumour volumes averaged ˜160.66 mm^3 on Study Day 0. Dosing commenced the following day and all animals were dosed intravenously with ADC Example 3, sacituzumab govitecan or unconjugated sacituzumab. The study was terminated on the Study Day 60.

[6] = 2.5 mg/kg IV QW × 2 weeks (Group 5 also got ADC Example 3 5 mg/kg on Day 27)
[7] = 5 mg/kg IV QW × 2 weeks (Group 4 also got ADC Example 3 5 mg/kg on Day 27)

Molecule	IC50 [2] [nM]	LNCaP tumour volume compared to the vehicle control (LNCaP tumour cells; 5 mg/kg)	Day 28 tumour volume (mm^3, mean ± SEM) (LNCaP tumour cells; 5 mg/kg) [mm^3]	Tumour growth inhibition (TGI, %) (LNCaP tumour cells; 5 mg/kg) [%]	LNCaP tumour volume compared to the vehicle control (LNCaP tumour cells; 10 mg/kg)	Day 28 tumour volume (mm^3, mean ± SEM) (LNCaP tumour cells; 10 mg/kg) [mm^3]	Tumour growth inhibition (TGI, %) (LNCaP tumour cells; 10 mg/kg) [%]	ΔTGI (Study Day 17) (VcaP tumour cells; 2.5 mg/kg IV QW × 2 weeks) [%]	ΔTGI (Study Day 17) (VcaP tumour cells; 5 mg/kg IV QW × 2 weeks) [%]	ΔTGI (Study Day 28) (JIMT-1 tumour cells; [6]) [%]	ΔTGI (Study Day 28) (JIMT-1 tumour cells; [7]) [%]	also measured
CNCc1cnc2ccc(-c3ccc(F)cc3OCCc3c(C(C)(C)O)nn(C)c3C)cn12 [Example 18, 2-(4-(2-(5-fluoro-2-(3-((methylamino)methyl)imidazo[1,2-a]pyridin-6-yl)phenoxy)ethyl)-1,5-dimethyl-1H-pyrazol-3-yl)propan-2-ol]	5.3	–	–	–	–	–	–	–	–	–	–	Caco-2 A-B (Caco-2 cells): 0.3 ×10⁻⁶ cm/s; Papp B→A at 2.5 h, 2 μM [1]: 21.1 ×10⁻⁶ cm/s
CNCc1cnc2ccc(-c3ccc(F)c(F)c3OCCc3c(C(C)(C)O)nn(C)c3C)cn12 [Example 21, 2-(4-(2-(2,3-difluoro-6-(3-((methylamino)methyl)imidazo[1,2-a]pyridin-6-yl)phenoxy)ethyl)-1,5-dimethyl-1H-pyrazol-3-yl)propan-2-ol]	0.4	–	–	–	–	–	–	–	–	–	–	IC50 [3]: 54 nM; IC50 [4]: 23 nM; tumour volume compared to vehicle (DOHH-2 tumor cells): significant reduction in tumour volume or reduced growth in tumour volume; IC50 [5]: 35 nM
ifinatamab	–	no significant effect	551.4 ± 73.1	30.6	no significant effect	666.56 ± 103.2	13.0	8.47	12.44	–	–	tumour volumes compared to vehicle alone (Group 1) (VcaP tumour cells; all concentrations tested (ADC Example 4: 2.5, 5, 10 mg/kg; unconjugated ifinatamab: 5 and 2.5 mg/kg)): no significant difference
sacituzumab	–	–	–	–	–	–	–	–	–	12.11	14.44	tumour volume compared to vehicle alone (Group 1) (JIMT-1 tumour cells; 2.5 mg/kg (Group 3), p=0.0586): no significant difference; tumour volume compared to vehicle alone (Group 1) (JIMT-1 tumour cells; 5 mg/kg (Group 2), p=0.0028): significant decrease; tumour volume, 5 mg/kg (Group 2) versus 2.5 mg/kg (Group 3) (JIMT-1 tumour cells; p=0.9837): no significant difference
sacituzumab govitecan	–	–	–	–	–	–	–	–	–	13.13	23.39	tumour volume compared to Groups 2 and 3 (unconjugated sacituzumab) (JIMT-1 tumour cells; 2.5 mg/kg (Group 5)): no significant difference; tumour volume compared to unconjugated sacituzumab Group 2 (5 mg/kg) and Group 3 (2.5 mg/kg) (JIMT-1 tumour cells; 5 mg/kg (Group 4)): significant decrease; tumour volumes compared to vehicle alone (Group 1) (JIMT-1 tumour cells; all concentrations tested (ADC Example 3: 2.5, 5, 10 mg/kg; sacituzumab govitecan: 5 and 2.5 mg/kg)): significant decrease
B1	–	slowed the growth of LNCaP tumours to a lesser extent	364.6 ± 51.7	58.8	significantly reduced the mean volume	259.5 ± 50.3	75.0	5.24	2.86	–	–	tumour volume compared to Groups 2, 3 and 4 (VcaP tumour cells; 2.5 mg/kg (Group 5)): no significant difference; tumour volume compared to vehicle alone (Group 1) (VcaP tumour cells; 2.5 mg/kg (Group 5)): no significant difference; tumour volume compared to unconjugated ifinatamab 5 mg/kg and 2.5 mg/kg (VcaP tumour cells; 5 mg/kg (Group 4)): significantly higher tumour volume; tumour volume compared to vehicle alone (Group 1) (VcaP tumour cells; 5 mg/kg (Group 4)): significantly higher tumour volume
